Measured values reported in patent US20250090475A1, “DRUG-LOADED AMINO ACID BASED POLY (ESTERUREA)FILMS FOR CONTROLLED LOCAL RELEASE OF NON-OPIOID ANALGESIC COMPOUNDS” (MERK SHARP & DOHME CORP., priority 2020, published 2025).

What was measured:
[1] = In vitro etoricoxib release from PEU films, USP Apparatus 7, PBS; assay type: physicochemical; details: about 6 mg in USP 7, PBS, n=3
[2] = Etoricoxib solubility in the release media; assay type: physicochemical; details: used in Higuchi equation
Experimental: D=(slope/A)^2/2CCs • Where the slope is the amount of drug released at time t divided by the square root of time, A is the area of the film, C is the initial drug concentration (or the drug-load in the polymer), CS is the drug solubility in the media (0.5 mg/mL) and D is the diffusivity constant. This constant not only indicates the mobility of the drug from the film into the media, but also can be used to calculate for the time of total release using the maximum amount of drug within the film (Table 11).

[3] = 90 mg etoricoxib dosed patients in comparison to diclofenac at 150 mg; oral; cited from earlier work

In the case of `Cc1ccc(-c2ncc(Cl)cc2-c2ccc(S(C)(=O)=O)cc2)cn1` [etoricoxib], the “time at which free drug release reached a plateau” value [1] is given as ~1 days, the “drug solubility in the media (CS)” value [2] is given as 0.5 mg/mL and the gastrointestinal events [3] is given as “decrease in gastrointestinal events”. The “risk of edema and hypertension” value [3] was “dose-dependent increased risk”.
